Like-named read-outs stand apart in the source and are kept apart here.
Tests used:
tinea unguium = assay: Treatment of tinea unguium, case reports; format: in vivo, humans
tinea glabrosa = assay: Topical treatment of tinea glabrosa, case reports; format: in vivo, humans
Protocol: Dermatomycosis includes dermatophytosis, cutaneous candidiasis, and malasseziosis. As time progresses with these diseases, a variety of fungi will parasitize the site.
To 2.4 g of calcium benzoate trihydrate was added water to prepare 200 g of a 1% test solution. This solution was atomized twice a day for tinea glabrosa denoted by redness on the abdominal region.
This red papule was treated twice a day with a 2% solution of ethylenediaminetetraacetic acid trisodium salt prepared in the same manner as in Example 5.

[1] = JECFA evaluation of food additives; cited from earlier work
tinea corporis = assay: Topical treatment of tinea corporis, case reports; format: in vivo, humans; conditions: for healing of tinea corporis: Example 10: 0.01% test solutions
Source text: (§1) The compounds of the present invention were investigated with respect to the treatment of dermatomycosis affecting humans. […] The cases of tinea used in the investigation involved selection of various types of tinea such as vesicular-type tinea, interdigital-type tinea, hyperkeratotic tinea, tinea corporis, tinea unguium, etc.
(§2) The dermatophytes that cause dermatophytosis, a typical form of dermatomycosis, are mainly Trichophyton rubrum and Trichophyton mentagrophytes. […] This confirmation of dermatophytes involved planting a sample of skin or nail of an area affected with tinea in a Candida nutrient medium (Nissui Pharmaceutical Co., Ltd.), isolating the dermatophytes that grow, and then confirming the dermatophytes through gene analysis or observation of morphology. A more detailed description of the fungus identification is provided in the examples.
A 1% test solution of ethylenediaminetetraacetic acid trisodium salt prepared in the same manner as Example 6 was applied by spraying once a day onto an area, approximately 5 cm wide and 3 cm long, of a chest affected by tinea corporis, which was denoted by flaring redness.
To 119 mg of ethylenediaminetetraacetic acid tetrasodium salt tetrahydrate was added 20% ethanol to prepare 1 L of 0.01% test solution. This test solution was applied by spraying, three times a day, to tinea corporis denoted by red flaring ridges that had occurred on the thigh.

[2] = tested on: T. mentagrophytes IFM 59813; assay: CLSI broth microdilution drug-sensitivity test; format: cell-based, Trichophyton mentagrophytes
Protocol: (§3) The antimicrobial activity of the pharmaceutical composition for dermatomycosis according to the present invention was evaluated through drug-susceptibility tests against major pathogenic fungi performed in compliance with the guidelines of the Clinical Laboratory Standards Institute (CLSI), USA. The pathogenic fungi selected were genus Tricophyton (T. rubrum, T. mentagrophytes, T. tonsurans), genus Microsporum (M. gypseum), genus Epidermophyton (E. floccosum), genus Candida (C. albicans), genus Aspergillus (A. fumigatus), and genus Cryptococcus (C. neoformans). […] In the drug-susceptibility tests, Mg ions and Ca ions necessary for conidia (spores) of the fungus to germinate growth were included in the nutrient medium.
(§4) The antifungal activity of the compounds of the present invention was evaluated by performing drug-sensitivity tests against various pathogenic fungi. The testing method was a broth microdilution method in conformance with the guidelines of the Clinical Laboratory Standards Institute (CLSI), USA.

C. neoformans IFM5807 = assay: CLSI broth microdilution drug-sensitivity test; format: cell-based
Protocol: as §3, §4

M. gypseum IFM 59816 = assay: CLSI broth microdilution drug-sensitivity test; format: cell-based
Protocol: as §3, §4

C. albicans IFM 5740 = assay: CLSI broth microdilution drug-sensitivity test; format: cell-based
Protocol: as §3, §4

A. fumigatus IFM4942 = assay: CLSI broth microdilution drug-sensitivity test; format: cell-based
Protocol: as §3, §4

hyperkeratotic tinea = assay: Topical treatment of hyperkeratotic tinea, case reports; format: in vivo, humans
Source text: as §1, §2

M. globosa = assay: microbe, parasite or virus in culture; conditions: Malassezia globosa, 168 h
Protocol: as §3
The antifungal activity of the compounds of the present invention against Malassezia spp. was evaluated in drug sensitivity tests against human-related genus Malassezia species, performed in compliance with the methodology of Sugita et al. (2005). The test drug and mLNA nutrient medium were added to the wells of a 24-well microtiter plate with a total quantity of 2 mL. A 50 μL microbe suspension with a concentration of approximately 1×10^4 cell/mL was added to the medium, which was cultured aerobically for 7 days at 32° C. […]

E. floccosum IFM 53345 = assay: CLSI broth microdilution drug-sensitivity test; format: cell-based, Epidermophyton floccosum
Protocol: as §3, §4

M. slooffiae = assay: organism not typed; conditions: 168 h
Protocol: as §3
(§5) The antifungal activity of the compounds of the present invention against Malassezia spp. was evaluated in drug sensitivity tests against human-related genus Malassezia species, performed in compliance with the methodology of Sugita et al. (2005). The test drug and mLNA nutrient medium were added to the wells of a 24-well microtiter plate with a total quantity of 2 mL. A 50 μL microbe suspension with a concentration of approximately 1×10^4 cell/mL was added to the medium, which was cultured aerobically for 7 days at 32° C. In comparison to the control (no test drug), the density required to completely prevent growth was set as the minimum inhibitory concentration (MIC).

M. yamatoensis = assay: organism not typed; conditions: 168 h
Protocol: as §3, §5

M. sympodialis = assay: organism not typed; conditions: 168 h
Protocol: as §3, §5

M. obtusa = assay: organism not typed; conditions: 168 h
Protocol: as §3, §5

M. dermatitis = assay: organism not typed; conditions: 168 h
Protocol: as §3, §5

M. restricta = assay: organism not typed; conditions: 168 h
Protocol: as §3, §5

M. japonica = assay: organism not typed; conditions: 168 h
Protocol: as §3, §5

Malassezia infection = conditions: Example 14: 1% test solution applied twice a day, lower-left abdomen
M. furfur = assay: Malassezia drug sensitivity test (Sugita et al., mLNA medium); format: cell-based
Protocol: as §3, §5

T. rubrum IFM 59814 = assay: CLSI broth microdilution drug-sensitivity test; format: cell-based, Trichophyton rubrum
Protocol: as §3, §4

[3] = Trichophyton mentagrophytes, IFM59813
[4] = Cryptococcus neoformans, IFM5807
[5] = Epidermophyton floccosum, IFM53345
[6] = T. mentagrophytes IFM 59813, broth microdilution

## CCC(C)n1ncn(-c2ccc(N3CCN(c4ccc(OCC5COC(Cn6cncn6)(c6ccc(Cl)cc6Cl)O5)cc4)CC3)cc2)c1=O (stereo not shown) [Itrizole, reference compound]
Tinea unguium; Example 16: oral therapy, left-foot big-toe toenail
  outcome of oral therapy of tinea unguium: ineffective

## O=C([O-])c1ccccc1.O=C([O-])c1ccccc1.[Ca+2] [calcium benzoate]
Tinea glabrosa; 1% aqueous solution (Example 15)
  curative effect against tinea of the skin: showed a curative effect
Tinea glabrosa; Example 15: 1% test solution in water atomized twice a day, abdominal region
  time until skin symptoms disappeared (tinea eliminated): about two

## O=C([O-])CN(CCN(CC(=O)O)CC(=O)O)CC(=O)[O-].[Na+].[Na+] [ethylenediaminetetraacetic acid disodium salt]
[1]
  permissible daily intake: ≤ 2.5 mg per 1 kg of body weight
Tinea corporis
  healing of tinea corporis: heal tinea corporis
[2]; [3]
  MIC: 78 µg/mL

## O=C([O-])CN(CCN(CC(=O)[O-])CC(=O)[O-])CC(=O)[O-].[Mg+2].[Na+].[Na+] [ethylenediaminetetraacetic acid magnesium disodium salt]
[2]; [3]
  MIC: 78 µg/mL

## O=C([O-])CN(CCN(CC(=O)[O-])CC(=O)O)CC(=O)[O-].[K+].[K+].[K+] [ethylenediaminetetraacetic acid tripotassium salt]
[2]; [3]
  MIC: 78 µg/mL

## O=C([O-])CN(CCN(CC(=O)[O-])CC(=O)O)CC(=O)[O-].[Na+].[Na+].[Na+] [ethylenediaminetetraacetic acid trisodium salt]
C. neoformans IFM5807; [4]
  MIC: 9.8 µg/mL
M. gypseum IFM 59816; Nannizzia gypsea, IFM59816
  MIC: 78 µg/mL
C. albicans IFM 5740; Candida albicans, IFM5740
  MIC: 0.2 µg/mL
A. fumigatus IFM4942; Aspergillus fumigatus, IFM4942
  MIC: 9.8 µg/mL
Hyperkeratotic tinea; Example 5: 2% test solution (glycerin, 15% ethanol), sprayed twice daily, sole of foot, T. mentagrophytes and Candida isolated
  time until hyperkeratotic-type tinea eliminated and clean skin recovered: approximately 2 months
Hyperkeratotic tinea; Example 6: 1% test solution, foot immersed 1 hour a day
  time until tinea eliminated and healthy skin returned: about one and a half
Hyperkeratotic tinea; Example 17: 2% test solution sprayed twice a day, base of toes to arch, Trichophyton rubrum
  time until infected area entirely replaced by healthy skin: approximately 6 months
Hyperkeratotic tinea; Example 21: 5% test solution sprayed twice a day, left and right heels, Trichophyton rubrum
  time until complete recovery of healthy skin: 3 months
Tinea corporis; Example 8: 1% test solution sprayed once a day, chest, Trichophyton mentagrophytes
  time until red flaring disappeared and healthy skin returned: approximately 2 weeks
Tinea corporis; Example 9: 1% test solution sprayed once a day, left thigh, considered M. canis
  time until skin symptoms disappeared or cicatrized (tinea corporis healed): approximately one
Tinea corporis
  healing of tinea corporis: heal tinea corporis
M. globosa
  MIC: 63 µg/mL
Tinea unguium; Example 12: 2% test solution, little finger soaked in fingerstall at bedtime, T. mentagrophytes and Candida
  time until healthy skin and nail recovered: 2 months
Tinea unguium; Example 16: 2% test solution sprayed twice a day, big-toe toenail refractory to oral Itrizole
  outcome of tinea unguium treatment: curing the tinea
Tinea unguium; Example 20: 3% test solution sprayed twice a day, little-toe toenail, Trichophyton rubrum
  time until tinea unguium cured: approximately 8 months
Tinea unguium; Example 22: 10% test solution in water applied once a day, right thumb nail, Trichophyton rubrum
  time until healthy nail recovered: about one
Tinea unguium; Example 23: 20% test solution (glycerin, water) applied twice a day, right thumbnail, Trichophyton rubrum
  time until healthy nail restored: about 1 year
Small red papules; Example 18: 2% test solution sprayed twice a day, scalp at back of head
  time until papules disappeared, completely healed: 2 weeks
Small red papules; Example 19: 2% test solution sprayed twice a day, back of right thigh, Trichophyton mentagrophytes
  time until papules disappeared, completely healed: 10 days
E. floccosum IFM 53345; [5]
  MIC: 78 µg/mL
[2]; [3]
  MIC: 78 µg/mL
M. slooffiae
  MIC: 63 µg/mL
M. yamatoensis
  MIC: 63 µg/mL
M. sympodialis
  MIC: 63 µg/mL
M. obtusa
  MIC: 31 µg/mL
M. dermatitis
  MIC: 31 µg/mL
M. restricta
  MIC: 31 µg/mL
M. japonica
  MIC: 63 µg/mL
Malassezia infection
  time until light-brown area disappeared: approximately 3 weeks
Tinea glabrosa; Example 23: 2% solution once or twice a day, thigh, abdomen, breast or back, Aspergillus tubingensis, Basidiomycete and other fungi
  time until red papules cured completely: 1-2 weeks
Tinea glabrosa; Example 23: 2% solution twice a day, back of head, Aspergillus japonicus
  time until complete cure of red papule: two
M. furfur; Malassezia furfur, 168 h
  MIC: 63 µg/mL
T. rubrum IFM 59814; Trichophyton rubrum, IFM59814
  MIC: 39 µg/mL

## O=C([O-])c1ccccc1.O=C([O-])c1ccccc1.[Mg+2] [magnesium benzoate]
[2]; [6]
  MIC: 780 µg/mL

## O=C([O-])c1ccccc1.[K+] [potassium benzoate]
[2]; [6]
  MIC: 780 µg/mL

## C/C=C/C=C/C(=O)[O-].[K+] [potassium sorbate]
C. neoformans IFM5807; [4]
  MIC: 200 µg/mL
M. gypseum IFM 59816; Nannizzia gypsea, IFM59816
  MIC: 780 µg/mL
C. albicans IFM 5740; Candida albicans, IFM5740
  MIC: 3100 µg/mL
A. fumigatus IFM4942; Aspergillus fumigatus, IFM4942
  MIC: 780 µg/mL
Tinea corporis
  healing of tinea corporis: heal tinea corporis
Tinea unguium; Example 13: 1% test solution (1% glycerin, 15% ethanol), big-toe toenail immersed 1 hour a day
  time until healthy nail regained: about 9 months
E. floccosum IFM 53345; [5]
  MIC: 200 µg/mL
[2]; [3]
  MIC: 390 µg/mL
M. furfur; Malassezia furfur, 168 h
  MIC: 310 µg/mL
T. rubrum IFM 59814; Trichophyton rubrum, IFM59814
  MIC: 780 µg/mL

## O=C([O-])c1ccccc1.[Na+] [sodium benzoate]
C. neoformans IFM5807; C. neoformans IFM5807, broth microdilution
  MIC: 1600 µg/mL
M. gypseum IFM 59816; M. gypseum IFM 59816, broth microdilution
  MIC: 1600 µg/mL
C. albicans IFM 5740; C. albicans IFM 5740, broth microdilution
  MIC: 6300 µg/mL
A. fumigatus IFM4942; A. fumigatus IFM4942, broth microdilution
  MIC: 3100 µg/mL
Tinea corporis
  healing of tinea corporis: heal tinea corporis
Tinea unguium; Example 13: 1% test solution in 20% ethanol, thumb nail soaked in fingerstall one day, 10 times
  time until healthy nail restored: about 3 months
E. floccosum IFM 53345; E. floccosum IFM 53345, broth microdilution
  MIC: 200 µg/mL
[2]; [6]
  MIC: 200 µg/mL
M. furfur; M. furfur, 7 days at 32° C., complete prevention of growth
  MIC: 310 µg/mL
T. rubrum IFM 59814; T. rubrum IFM 59814, broth microdilution
  MIC: 390 µg/mL

## C/C=C/C=C/C(=O)[O-].[Na+] [sodium sorbate]
[2]; Trichophyton mentagrophytes, IFM59813, T. mentagrophytes IFM 59813, broth microdilution, read-out: MIC
  MIC: 780 µg/mL
